Source: patent US6281349A, “Method for nucleic acid purification using iodine” (priority 2000, dated 2001)

Key:
Format in all cases: biochemical
[1] = target: T1, Ribonuclease A (RNAase A, pancreatic ribonuclease) (Bos taurus, UniProt P61823); assay: Residual RNAase activity test of plasmids purified with or without iodine (wheat germ rRNA degradation); conditions: 50 mM iodine during potassium acetate precipitation, RNAase A 10 micrograms/mL in cell resuspension buffer, 37° C., 30 min
T1 sequence (P61823 27-150): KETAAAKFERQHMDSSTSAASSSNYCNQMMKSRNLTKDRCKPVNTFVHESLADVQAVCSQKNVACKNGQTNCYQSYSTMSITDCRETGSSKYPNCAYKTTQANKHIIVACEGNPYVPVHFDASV
Procedure: Plasmids were purified by two methods both using RNAase A at 10 micrograms/mL in the cell resuspension buffer. In the right hand sample 50 mM iodine was included during potassium acetate precipitation of unwanted cellular components. In the center lane iodine was not included in the potassium acetate buffer. These purified plasmid preparations, "plasmid+I2 " and "plasmid-I2 ", respectively were incubated with wheat germ RNA in a sensitive assay designed to test for the presence residual RNAase activity. Wheat germ rRNA (0.5 micrograms in 5 microlitres of resuspension buffer: Soln A) was incubated at 37° C. for 30 min either alone or with 2 microlitres of purified plasmid dissolved in Soln A. The resulting samples were electrophoresed in the presence of SYBR green II to detect the nucleic acids. The 28s and 18s components of wheat germ rRNA were not degraded when incubated with buffer alone (left channel) or with plasmids purified by the method employing RNAase A and iodine (right channel). The rRNA was degraded when incubated with plasmids purified with RNAase and without iodine (center channel).

[2] = target: T2, Micrococcal nuclease (MN) (Boehringer Mannheim) (Staphylococcus aureus, UniProt P00644); assay: Residual nuclease activity test after iodine miniprep (Mg/Ca incubation, supercoiled to nicked plasmid); conditions: 5 micrograms MN (300 units) added to cells, 5 mM MgCl2, CaCl2, 90 minutes at 37° C.
T2 construct: purchased Boehringer Mannheim
Procedure: (§1) Cells from 1 mL of terrific broth culture of pUC18 in NM522 (EndoI+) were resuspended in 0.2 mL of resuspension buffer (A). #1: No exogenous nuclease, #2:5 micrograms Micrococcal nuclease (MN) (300 units Boehringer Mannheim), #3:5 Units DNaseI (Promega), were added to the respective cell samples before processing for the preparation of the plasmid. After processing by the preferred embodiment Iodine miniprep procedure an aliquot of each sample was made 5 mM each in MgCl2, CaCl2 and 20 mM Tris.HCl pH 8.3. After 90 minutes at 37° C. these were electrophoresed (bottom group) together with aliquots that had not been exposed to Mg/Ca (top group) in a 1% agarose gel with SYBR green II fluorescent dye for detection of nucleic acids.

DNaseI (Promega) = target: T3, DNaseI (Promega) (Bos taurus, UniProt P00639); assay: as above; conditions: 5 Units DNaseI added to cells, 5 mM MgCl2, CaCl2, 90 minutes at 37° C.
T3 construct: purchased Promega
T3 sequence (P00639 23-282): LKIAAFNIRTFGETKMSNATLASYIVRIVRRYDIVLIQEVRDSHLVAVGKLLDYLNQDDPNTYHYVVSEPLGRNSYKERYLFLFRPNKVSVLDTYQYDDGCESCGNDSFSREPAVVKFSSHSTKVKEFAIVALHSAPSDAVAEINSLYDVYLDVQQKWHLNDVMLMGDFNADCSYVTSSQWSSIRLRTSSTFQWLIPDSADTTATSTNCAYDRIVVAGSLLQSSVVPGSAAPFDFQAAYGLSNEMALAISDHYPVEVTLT
Procedure: as §1

[3] = target: T4, Endonuclease I (Endo I), endogenous, E. coli NM522 (EndoI+) (Escherichia coli, UniProt P25736); assay: as above; conditions: preferred embodiment, 5 mM MgCl2, CaCl2, 90 minutes at 37° C., no exogenous nuclease
T4 construct: due to either the endogenous Endo I or to residual activity of either of the added nucleases; endogenous in cells; host or cells: E. coli NM522 (EndoI+)
T4 sequence (P25736 23-235): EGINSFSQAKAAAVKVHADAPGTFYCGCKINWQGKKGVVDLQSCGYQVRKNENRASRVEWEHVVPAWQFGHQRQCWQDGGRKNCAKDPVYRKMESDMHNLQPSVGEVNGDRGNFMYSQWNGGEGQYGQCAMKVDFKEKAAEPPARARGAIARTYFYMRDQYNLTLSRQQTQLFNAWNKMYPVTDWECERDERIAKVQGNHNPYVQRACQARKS
Procedure: as §1

II [iodine]
inactivation of RNase by iodine [1]: effective in inactivating RNAase | inactivation of Micrococcal nuclease by iodine [2]: lack of conversion of supercoiled plasmid (I) to nicked (II) | inactivation of DNaseI by iodine (DNaseI (Promega)): lack of conversion of supercoiled plasmid (I) to nicked (II) | inactivation of Endo I by iodine [3]: lack of conversion of supercoiled plasmid (I) to nicked (II)
